Laboratory results: patent US10947289B2, “Glyco-modified atrial natriuretic peptide” (priority 2013, dated 2021)

target: T1, human GC-A (Homo sapiens, UniProt P16066); test: cGMP elevating activity in CHO/human GC-A cells (Test Example 1); format: cell-based
T1 construct: expressed in transfected cells; host or cells: CHO cells
T1 sequence (P16066 33-1061): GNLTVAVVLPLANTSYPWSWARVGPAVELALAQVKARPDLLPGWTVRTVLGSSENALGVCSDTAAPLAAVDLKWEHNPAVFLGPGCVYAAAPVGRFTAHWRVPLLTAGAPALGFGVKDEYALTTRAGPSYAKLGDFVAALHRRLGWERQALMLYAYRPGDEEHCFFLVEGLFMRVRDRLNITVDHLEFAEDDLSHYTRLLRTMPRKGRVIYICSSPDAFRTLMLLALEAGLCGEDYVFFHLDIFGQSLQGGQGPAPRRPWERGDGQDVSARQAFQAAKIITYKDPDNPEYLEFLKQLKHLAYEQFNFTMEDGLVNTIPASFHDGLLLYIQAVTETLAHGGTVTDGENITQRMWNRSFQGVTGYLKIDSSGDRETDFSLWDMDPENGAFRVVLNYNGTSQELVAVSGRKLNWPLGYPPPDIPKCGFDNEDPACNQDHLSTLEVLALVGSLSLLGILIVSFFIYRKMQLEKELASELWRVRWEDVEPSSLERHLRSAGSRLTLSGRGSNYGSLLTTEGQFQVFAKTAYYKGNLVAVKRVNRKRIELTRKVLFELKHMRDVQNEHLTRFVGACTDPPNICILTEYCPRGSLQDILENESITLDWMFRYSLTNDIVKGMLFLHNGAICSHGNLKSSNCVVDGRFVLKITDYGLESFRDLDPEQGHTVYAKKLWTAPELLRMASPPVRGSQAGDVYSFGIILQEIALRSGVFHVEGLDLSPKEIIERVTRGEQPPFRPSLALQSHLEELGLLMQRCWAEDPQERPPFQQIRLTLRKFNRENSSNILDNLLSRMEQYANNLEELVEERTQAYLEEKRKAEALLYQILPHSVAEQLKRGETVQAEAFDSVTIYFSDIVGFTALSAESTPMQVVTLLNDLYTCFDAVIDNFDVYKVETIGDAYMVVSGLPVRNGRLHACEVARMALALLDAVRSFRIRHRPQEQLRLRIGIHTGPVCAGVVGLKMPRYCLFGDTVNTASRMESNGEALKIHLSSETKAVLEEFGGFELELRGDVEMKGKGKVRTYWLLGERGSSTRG
Experimental: The cGMP elevating activity of each modified peptide prepared in Example 2 was measured by the following method:
CHO/human GC-A cells, which are CHO cells constitutively expressing human GC-A, were suspended at 2×10^5 cells/ml in α-MEM, 10% FBS, and 1% penicillin-streptomycin, inoculated at 20 μl/well (4×10^3 cells/well) onto a 384-well plate (Corning, 3826), and cultured overnight in a CO2 incubator. On the next day, the medium was removed from this plate, and then, 1.6 mM IBMX/KRB buffer was added thereto at 10 μl/well. The mixture was stirred on a plate shaker and then incubated at room temperature for 10 minutes. […] The mixture was stirred on a plate shaker and then incubated for 15 minutes in a CO2 incubator. Thereafter, a lysis buffer (50 mM phosphate buffer, pH 7.0, and 1% Triton X-100) was added thereto at 5 μl/well. The cells were lysed by stirring for 10 minutes on a plate shaker. Subsequently, the cGMP levels in the cell lysates were measured by use of a cGMP kit (manufactured by Cisbio Bioassays). Specifically, to a 384-well plate (Greiner, 784076), 5 μl/well of a diluent attached to the kit, 5 μl/well of the cell lysate, 5 μl/well of cGMP-d2, and 5 μl/well of anti cGMP-Cryptate were added. The mixture was stirred on a plate shaker and then incubated overnight at 4° C. in the dark, followed by the measurement of homogeneous time-resolved fluorescence using RubyStar (manufactured by BMG LABTECH JAPAN Ltd.). The activity value (T/C) of the test substance at each concentration was calculated when the activity value of a well supplemented with only a solvent was defined as 0 and the activity value of a well supplemented with 1 nM ANP was defined as 1.

| SMILES | EC50 |
| --- | --- |
| CC[C@H](C)[C@@H]1NC(=O)[C@H](CCCNC(=N)N)NC(=O)[C@H](CC(=O)O)NC(=O)[C@H](CCSC)NC(=O)[C@H](CCCNC(=N)N)NC(=O)CNC(=O)CNC(=O)[C@H](Cc2ccccc2)NC(=O)[C@@H](NC(=O)[C@H](CO)NC(=O)[C@H](CO)NC(=O)[C@H](CCCNC(=N)N)NC(=O)[C@H](CCCNC(=N)N)NC(=O)[C@H](CC(C)C)NC(=O)[C@H](CO)NC(=O)CCSC2CC(=O)N(CCC(=O)NCCOCCOCCOCCOCCC(=O)N[C@@H](CCC(=O)NCCO[C@@H]3O[C@H](CO)[C@@H](O[C@@H]4O[C@H](CO)[C@@H](O[C@@H]5O[C@H](CO[C@H]6O[C@H](CO)[C@@H](O)[C@H](O)[C@@H]6O[C@@H]6O[C@H](CO)[C@@H](O[C@@H]7O[C@H](CO[C@]8(C(=O)O)C[C@H](O)[C@@H](NC(C)=O)[C@H]([C@H](O)[C@H](O)CO)O8)[C@H](O)[C@H](O)[C@H]7O)[C@H](O)[C@H]6NC(C)=O)[C@@H](O)[C@H](O[C@H]6O[C@H](CO)[C@@H](O)[C@H](O)[C@@H]6O[C@@H]6O[C@H](CO)[C@@H](O[C@@H]7O[C@H](CO[C@]8(C(=O)O)C[C@H](O)[C@@H](NC(C)=O)[C@H]([C@H](O)[C@H](O)CO)O8)[C@H](O)[C@H](O)[C@H]7O)[C@H](O)[C@H]6NC(C)=O)[C@@H]5O)[C@H](O)[C@H]4NC(C)=O)[C@H](O)[C@H]3NC(C)=O)C(=O)NCCO[C@@H]3O[C@H](CO)[C@@H](O[C@@H]4O[C@H](CO)[C@@H](O[C@@H]5O[C@H](CO[C@H]6O[C@H](CO)[C@@H](O)[C@H](O)[C@@H]6O[C@@H]6O[C@H](CO)[C@@H](O[C@@H]7O[C@H](CO[C@]8(C(=O)O)C[C@H](O)[C@@H](NC(C)=O)[C@H]([C@H](O)[C@H](O)CO)O8)[C@H](O)[C@H](O)[C@H]7O)[C@H](O)[C@H]6NC(C)=O)[C@@H](O)[C@H](O[C@H]6O[C@H](CO)[C@@H](O)[C@H](O)[C@@H]6O[C@@H]6O[C@H](CO)[C@@H](O[C@@H]7O[C@H](CO[C@]8(C(=O)O)C[C@H](O)[C@@H](NC(C)=O)[C@H]([C@H](O)[C@H](O)CO)O8)[C@H](O)[C@H](O)[C@H]7O)[C@H](O)[C@H]6NC(C)=O)[C@@H]5O)[C@H](O)[C@H]4NC(C)=O)[C@H](O)[C@H]3NC(C)=O)C2=O)CSSC[C@@H](C(=O)N[C@@H](CC(N)=O)C(=O)N[C@@H](CO)C(=O)N[C@@H](Cc2ccccc2)C(=O)N[C@@H](CCCNC(=N)N)C(=O)N[C@@H](Cc2ccc(O)cc2)C(=O)O)NC(=O)CNC(=O)[C@H](CC(C)C)NC(=O)CNC(=O)[C@H](CO)NC(=O)[C@H](CCC(N)=O)NC(=O)[C@H](C)NC(=O)CNC1=O (stereo partly drawn) [Compound 2-32, SG-(SG-)Gln*-PEG(3)-Mal-hANP(1-28)] | 0.41 nM |
| CC[C@H](C)[C@@H]1NC(=O)[C@H](CCCNC(=N)N)NC(=O)[C@H](CC(=O)O)NC(=O)[C@H](CCSC)NC(=O)[C@H](CCCNC(=N)N)NC(=O)CNC(=O)CNC(=O)[C@H](Cc2ccccc2)NC(=O)[C@@H](NC(=O)[C@H](CO)NC(=O)[C@H](CO)NC(=O)[C@H](CCCNC(=N)N)NC(=O)[C@H](CCCNC(=N)N)NC(=O)[C@H](CC(C)C)NC(=O)[C@H](CO)NC(=O)CNC(=O)[C@H](CO)NC(=O)CNC(=O)[C@H](CO)NC(=O)CNC(=O)[C@H](CO)NC(=O)[C@H](CC(=O)N[C@@H]2O[C@H](CO)[C@@H](O[C@@H]3O[C@H](CO)[C@@H](O[C@@H]4O[C@H](CO[C@H]5O[C@H](CO)[C@@H](O)[C@H](O)[C@@H]5O[C@@H]5O[C@H](CO)[C@@H](O[C@@H]6O[C@H](CO[C@]7(C(=O)O)C[C@H](O)[C@@H](NC(C)=O)[C@H]([C@H](O)[C@H](O)CO)O7)[C@H](O)[C@H](O)[C@H]6O)[C@H](O)[C@H]5NC(C)=O)[C@@H](O)[C@H](O[C@H]5O[C@H](CO)[C@@H](O)[C@H](O)[C@@H]5O[C@@H]5O[C@H](CO)[C@@H](O[C@@H]6O[C@H](CO[C@]7(C(=O)O)C[C@H](O)[C@@H](NC(C)=O)[C@H]([C@H](O)[C@H](O)CO)O7)[C@H](O)[C@H](O)[C@H]6O)[C@H](O)[C@H]5NC(C)=O)[C@@H]4O)[C@H](O)[C@H]3NC(C)=O)[C@H](O)[C@H]2NC(C)=O)NC(=O)CO[C@@H]2O[C@H](CO)[C@@H](O[C@@H]3O[C@H](CO)[C@@H](O[C@@H]4O[C@H](CO[C@H]5O[C@H](CO)[C@@H](O)[C@H](O)[C@@H]5O[C@@H]5O[C@H](CO)[C@@H](O[C@@H]6O[C@H](CO[C@]7(C(=O)O)C[C@H](O)[C@@H](NC(C)=O)[C@H]([C@H](O)[C@H](O)CO)O7)[C@H](O)[C@H](O)[C@H]6O)[C@H](O)[C@H]5NC(C)=O)[C@@H](O)[C@H](O[C@H]5O[C@H](CO)[C@@H](O)[C@H](O)[C@@H]5O[C@@H]5O[C@H](CO)[C@@H](O[C@@H]6O[C@H](CO[C@]7(C(=O)O)C[C@H](O)[C@@H](NC(C)=O)[C@H]([C@H](O)[C@H](O)CO)O7)[C@H](O)[C@H](O)[C@H]6O)[C@H](O)[C@H]5NC(C)=O)[C@@H]4O)[C@H](O)[C@H]3NC(C)=O)[C@H](O)[C@H]2NC(C)=O)CSSC[C@@H](C(=O)N[C@@H](CC(N)=O)C(=O)N[C@@H](CO)C(=O)N[C@@H](Cc2ccccc2)C(=O)N[C@@H](CCCNC(=N)N)C(=O)N[C@@H](Cc2ccc(O)cc2)C(=O)O)NC(=O)CNC(=O)[C@H](CC(C)C)NC(=O)CNC(=O)[C@H](CO)NC(=O)[C@H](CCC(N)=O)NC(=O)[C@H](C)NC(=O)CNC1=O [Compound 2-36, SG-(SG-)Asn-(Ser-Gly)3-hANP(1-28)] | 0.39 nM |
| CC[C@H](C)[C@@H]1NC(=O)[C@H](CCCNC(=N)N)NC(=O)[C@H](CC(=O)O)NC(=O)[C@H](CCSC)NC(=O)[C@H](CCCNC(=N)N)NC(=O)CNC(=O)CNC(=O)[C@H](Cc2ccccc2)NC(=O)[C@@H](NC(=O)[C@H](CO)NC(=O)[C@H](CO)NC(=O)[C@H](CCCNC(=N)N)NC(=O)[C@H](CCCNC(=N)N)NC(=O)[C@H](CC(C)C)NC(=O)[C@H](CO)NC(=O)CCOCCOCCOCCOCCNC(=O)[C@H](CCCCNC(=O)CO[C@@H]2O[C@H](CO)[C@@H](O[C@@H]3O[C@H](CO)[C@@H](O[C@@H]4O[C@H](CO[C@H]5O[C@H](CO)[C@@H](O)[C@H](O)[C@@H]5O[C@@H]5O[C@H](CO)[C@@H](O[C@@H]6O[C@H](CO[C@]7(C(=O)O)C[C@H](O)[C@@H](NC(C)=O)[C@H]([C@H](O)[C@H](O)CO)O7)[C@H](O)[C@H](O)[C@H]6O)[C@H](O)[C@H]5NC(C)=O)[C@@H](O)[C@H](O[C@H]5O[C@H](CO)[C@@H](O)[C@H](O)[C@@H]5O[C@@H]5O[C@H](CO)[C@@H](O[C@@H]6O[C@H](CO[C@]7(C(=O)O)C[C@H](O)[C@@H](NC(C)=O)[C@H]([C@H](O)[C@H](O)CO)O7)[C@H](O)[C@H](O)[C@H]6O)[C@H](O)[C@H]5NC(C)=O)[C@@H]4O)[C@H](O)[C@H]3NC(C)=O)[C@H](O)[C@H]2NC(C)=O)NC(=O)CO[C@@H]2O[C@H](CO)[C@@H](O[C@@H]3O[C@H](CO)[C@@H](O[C@@H]4O[C@H](CO[C@H]5O[C@H](CO)[C@@H](O)[C@H](O)[C@@H]5O[C@@H]5O[C@H](CO)[C@@H](O[C@@H]6O[C@H](CO[C@]7(C(=O)O)C[C@H](O)[C@@H](NC(C)=O)[C@H]([C@H](O)[C@H](O)CO)O7)[C@H](O)[C@H](O)[C@H]6O)[C@H](O)[C@H]5NC(C)=O)[C@@H](O)[C@H](O[C@H]5O[C@H](CO)[C@@H](O)[C@H](O)[C@@H]5O[C@@H]5O[C@H](CO)[C@@H](O[C@@H]6O[C@H](CO[C@]7(C(=O)O)C[C@H](O)[C@@H](NC(C)=O)[C@H]([C@H](O)[C@H](O)CO)O7)[C@H](O)[C@H](O)[C@H]6O)[C@H](O)[C@H]5NC(C)=O)[C@@H]4O)[C@H](O)[C@H]3NC(C)=O)[C@H](O)[C@H]2NC(C)=O)CSSC[C@@H](C(=O)N[C@@H](CC(N)=O)C(=O)N[C@@H](CO)C(=O)N[C@@H](Cc2ccccc2)C(=O)N[C@@H](CCCNC(=N)N)C(=O)N[C@@H](Cc2ccc(O)cc2)C(=O)O)NC(=O)CNC(=O)[C@H](CC(C)C)NC(=O)CNC(=O)[C@H](CO)NC(=O)[C@H](CCC(N)=O)NC(=O)[C@H](C)NC(=O)CNC1=O [Compound 2-35, SG-(SG-)Lys-PEG(3)-hANP(1-28)] | 0.31 nM |
